Consider 2 sequences from patent US8637470B2, “Small humanin-like peptides” (The Regents of the University of California, priority 2008, dated 2014).

Assay [1] deals with STAT3. The experiment in a line: STAT3 phosphorylation in NIT-1 cells (immunoblotting). The format is cell-based, mouse. As to conditions: NIT-1, 100 nM. Here is the method: (§1) In addition to 22RV1, the effects of SHLPs on ERK and STAT3 phosphorylation were also studied in NIT-1 pancreatic β-cells. […] Indeed, the activation profile caused by SHLP3 in NIT-1 is remarkably similar to that stimulated by SHLP2 in 22RV1. When ERK activation was quantified by ELISA, a 6-fold and 9-fold activation was observed after 2 and 24 h, respectively, by SHLP2.
(In western blotting, separated proteins are transferred to a membrane and probed.)

Assay [2] concerns murine 3T3-L1 fibroblasts. The experiment in a line: 3T3-L1 adipocyte differentiation (oil red-O staining). The format is cell-based. Conditions: 100 nM peptide with 10 nM insulin, 7 days. As to the method: SHLPs 2 and 3 Stimulate Adipocyte Differentiation of 3T3-L1 Cells in vitro. […] We next assessed the ability of SHLP2, 3 and 6 to modulate the differentiation of 3T3-L1 adipocytes. Differentiation was induced in murine 3T3-L1 fibroblasts by incubation in 1 μM dexamethasone, 100 nM insulin, and 500 μM lisobutylmethyxanthine for 2 days, followed by incubation with 10 nM insulin in the presence of 100 nM scrambled peptide (control), SHLP2, SHLP3 or SHLP6 for 7 days. Differentiation was assessed by oil red-0 staining as a measure of oil droplet formation.

The test system of assay [3] is Mouse NIT-1 insulinoma β-cells. The experiment in a line: Cell proliferation (cell number by MTT/MTS cleavage) in NIT-1 cells. Type of assay: cell-based. As to conditions: NIT-1, 100 nM peptide, 72 h. As to the method: (§2) SHLPs exert distinct effects on cell proliferation. Whether SHLPs have the capacity to influence cell proliferation, in addition to their intrinsic effects on apoptosis induction, was also investigated. Mouse NIT-1 insulinoma β-cells and 22RV1 human prostate cancer cells were serum starved for 24 h, followed by 72 h incubation with 100 nM scrambled control peptide, HN or SHLPs. Cell number, as a measure of cell proliferation, was assessed by cleavage of MTT substrate.

For assay [4], the system named is 22RV1 human prostate cancer cells. Briefly: Cell proliferation (cell number by MTT/MTS cleavage) in 22RV1 cells. Type of assay: cell-based. As to conditions: 22RV1, 100 nM peptide, 72 h. Here is the method: as §2
Pro-apoptotic effect on human prostate cancer cells in vitro. To assess the ability of SHLP6 to induce apoptosis in human prostate cancer cells, PC-3, 22RV1 or DU145 cells were incubated in serum free (SF) media for 24 h followed by 24 h incubation with 1 μM scrambled (control) peptide or SHLP6. Apoptosis was assessed by ELISA for fragmentation of histone-associated DNA. In each cell line tested, SHLP6 induced apoptosis by at least 2-fold (FIG. 2), confirming highly significant physiological effects of this novel peptide. To determine whether the effects of SHLP6 were specific to induction of apoptosis, or if it also elicited growth-inhibitory effects, PC-3, DU-145, 22RV1, LAPC4 and LNCaP cells were incubated in SF media for 24 h followed by 72 h incubation with 1 μM SHLP6. Cell number, as a measure of cell proliferation, was assessed by cleavage of MTS substrate.

For assay [5], the system named is ERK. The experiment in a line: ERK activation in 22RV1 cells (immunoblotting, ELISA). Conditions: 22RV1, 100 nM; for ERK activation profile (immunoblotting): 15 min to 24 h. Type of assay: cell-based, human. Here is the method: Characterization of the intracellular signaling pathways activated by SHLPs. To determine a mechanism for the growth and apoptosis effects of SHLPs, SHLPs were tested for the ability to modulate activation of intracellular signaling pathways. 22RV1 cells in SF media were treated with 100 nM SHLP 1-5 and whole cell extracts were harvested after 15 min, 30 min, 2 h, 4 h, 8 h and 24 h. Proteins were separated by SDS-PAGE and analyzed by immunoblotting.
To test the hypothesis that SHLPs may act in concert to regulate intracellular signaling, 22RV1 cells were co-treated with SHLPs 2 and 3, and ERK activation was assessed.
(§3) Since HN causes activation of STAT3, SHLPs 2 and 3 were also tested for effects on STAT3. […] To more accurately quantify the ERK phosphorylation caused by SHLPs 2 and 3, we repeated the experiment as described above but used a commercially available ERK ELISA to assess ERK phosphorylation. Optimal ERK activation by SHLP2 was 9-fold after 24 h, whilst optimal activation by SHLP3 was 12-fold after 2 h (FIG. 5).

In assay [6] the test system is STAT3. The experiment in a line: STAT3 activation in 22RV1 cells (immunoblotting). The format is cell-based, human. As to conditions: 22RV1, 100 nM. As to the method:
as §3

Assay [7] relates to Mouse primary cortical neurons. Briefly: Protection of primary cortical neurons from Aβ-induced cell death (Calcein-AM). Conditions: 25 μM Aβ1-43, 100 nM peptide, 72 h. The format is cell-based. As to the method:
SHLPs protect neurons from Aβ-induced apoptosis. When it was first discovered, HN was described as a potent neural survival factor with clinical implications as a therapeutic agent against neurodegenerative diseases such as Alzheimer's Disease. Since many of the SHLPs appear to be functionally related to HN, SHLPs were tested as potential neuroprotective factors. Mouse primary cortical neurons were incubated with 25 μM Aβ1-43 in the presence or absence of 100 nM SHLP2 or 3, HNG (positive control) or 1 nM colivelin (positive control). After 72 h, neuronal viability was assessed by Calcein-AM staining followed by fluorescence microscopy (FIG. 13).

The next assay relates to S. cerevisiae. The experiment in a line: Yeast heat shock survival. The format is cell-based. Conditions: 10 μM peptide, 90° heat shock. As to the method:
SHLPs enhance stress resistance in yeast. The ability of SHLPs to enhance stress resistance in yeast was tested. The ability of yeast to survive heat shock after being treated with different peptides is a commonly used method to test the ability of peptides to enhance yeast survival.

The test system of assay [8] is ERK. Briefly: ERK phosphorylation in NIT-1 cells (immunoblotting, ELISA). The format is cell-based, mouse. Conditions: NIT-1, 100 nM. Here is the method: as §1

“Also recorded” adds a separate entry of the source.

“MGVKFFTLSTRFFPSVQRAVPLWTNS [SHLP2, small humanin-like peptide, mtDNA 2092-2170]”: in the assay on STAT3 [1], the “STAT3 activation/phosphorylation (immunoblotting)” value is reported as “temporally similar to the timing of ERK activation”. For the same sequence, the “Adipocyte differentiation (oil red-O staining)” value in [2] is “strikingly induced adipocyte differentiation; also recorded: stimulate 3T3-L1 adipocyte differentiation”. The “Cell number as a measure of cell proliferation” value in assay [3] and in [4] was “much greater effect” each time. In addition, the “ERK activation profile (immunoblotting)” value with ERK [5] is recorded as “delayed but sustained activation after 8 h”. In addition, the “Optimal ERK activation (ELISA)” value in the assay on ERK [5] (after 24 h) was 9 fold. In addition, in the assay with STAT3 [6], the “STAT3 activation (immunoblotting)” value was “significantly enhanced STAT3 activation”. The “Neuronal viability against Aβ-induced cell death” value in assay [7] is listed as “protect the neurons from the cell death; also recorded: function as neuro-protective factors”. Further, in the assay with S. cerevisiae, the “Yeast survival of heat shock” value is “allowed the yeast to withstand 90° heat shock; also recorded: enhance yeast survival against heat shock”. In addition, the “ERK phosphorylation profile (immunoblotting)” value in the assay with ERK [8] is “detected within 30 min”. Besides, the “ERK activation (ELISA)” value in the assay with ERK [8] (after 2 h) was 6 fold; with ERK [8] (after 24 h) it was 9 fold.
For “MLGYNFSSFPCGTISIAPGFNFYRLYFIWVNGLAKVVW [SHLP3, small humanin-like peptide, mtDNA 1707-1821]”, in the assay on STAT3 [1], the “STAT3 activation/phosphorylation (immunoblotting)” value was “only slightly stimulate”. Further, in assay [2], the “Adipocyte differentiation (oil red-O staining)” value is recorded as “strikingly induced adipocyte differentiation; also recorded: stimulate 3T3-L1 adipocyte differentiation”. Moreover, the “Cell number as a measure of cell proliferation” value in assay [3] and in [4] was “much greater effect” each time. Moreover, the “Time to ERK activation” value with ERK [5] was ≤ 2 min. Also, the “ERK activation profile (immunoblotting)” value in the assay on ERK [5] is reported as “activated ERK rapidly”. For the same sequence, in the assay with ERK [5] (after 2 h), the “Optimal ERK activation (ELISA)” value was 12 fold. In addition, the “STAT3 activation (immunoblotting)” value with STAT3 [6] is given as “significantly enhanced STAT3 activation”. Besides, the “Neuronal viability against Aβ-induced cell death” value in assay [7] was “protect the neurons from the cell death; also recorded: function as neuro-protective factors”. Moreover, the “Yeast survival of heat shock” value in the assay on S. cerevisiae is “allowed the yeast to withstand 90° heat shock; also recorded: enhance yeast survival against heat shock”. In addition, the “ERK phosphorylation profile (immunoblotting)” value in the assay with ERK [8] is recorded as “more delayed response”. For the same sequence, the “ERK activation (ELISA)” value is “no detectable increase” in the assay with ERK [8] (after 2 h) and 15 fold in the assay on ERK [8] (after 24 h).
